According to US10858305B2, “Perillyl alcohol-3-bromopyruvate conjugate and methods of treating cancer” (NeOnc Technologies, Inc., priority 2016, dated 2020):
Entries after “also recorded” stand apart in the source; their conditions may differ.

Legend:
MDA-MB-231 cells = assay: MTT short-term toxicity assay in MDA-MB-231 cells; assay type: cell-based, human
Description: (§1) (A) MTT assay was performed after 24 hours. […] (B) LDH assay was performed after […]. LDH release by untreated cells was set to 1. Relative fold increase is shown (n=3).
(§2) (A) MTT assay was performed after 24 hours. Viability of untreated cells was set at 100% (data points are averages of 2 experiments). (B) LDH assay was performed after 24 hours. LDH release by untreated cells was set to 1. Relative fold increase is shown (averages from 2 experiments). (C) Representative photos show typical colony formation after initial 48 hours of drug treatment. In all cases of combination treatment with 3-BP mixed with […] (3-BP+POH), the indicated concentrations refer to each individual drugs, i.e., 100 μM 3-BP+POH means that 100 μM 3-BP was combined with 100 μM POH.
Methylthiazoletetrazolium (MTT) assays were performed as described earlier.

HCT116 cells [1] = assay: cells; settings: Homo sapiens; for IC50: HCT-116, 24 h, read-out: half-maximal effect, MTT assay
Description: (A) MTT assay was performed after 24 hours. Viability of untreated cells was set at 100% (n=3).
Methylthiazoletetrazolium (MTT) assays were performed as described earlier [38]. Briefly, cells were seeded into 96-well plates at 2.0 to 8.0×10^3 cells per well and exposed to drug treatment (or solvent alone) for 24 or 48 hours. In individual experiments, each treatment condition was set up in triplicate, and each experiment was repeated several times independently.

[2] = test system: HCT116 colon cancer cells; assay: LDH release assay in HCT116 cells; assay type: cell-based; settings: Homo sapiens, HCT-116; HCT116, 16 hours; read-out: half-maximal effect, LDH assay
Description: as §1
(§3) The capacity for rapid cell killing by NEO218 relative to 3-BP, POH and 3-BP+POH was evaluated via LDH assay, where LDH release is used as a proxy for cell death.
(§4) In FIG. 4, Panels (a) and (b), show the results of treating breast cancer cell lines with increasing concentrations of NEO218, 3-BP, or 3-BP mixed with POH. […] In all cases a-d, the release of LDH (as a marker of cell death) was measured after 24 hours.
(§5) Depending on the cell line, 2000 to 4000 cells per well were seeded in a volume of 50 μL into a 96-well plate. The next day, drugs ere added in an additional 50 μL of medium. At different time points (usually after 24 hours of incubation), 50 μL medium was removed and processed with the LDH Cytotoxicity Assay Kit (Thermo Fisher Scientific, Waltham, Mass.) according to the manufacturer's instructions. This kit measures extracellular LDH in culture medium using an enzymatic reaction that results in a red formazan product, which can be measured spectrophotometrically. The absorbance was measured at 490 and 680 nm. All LDH levels were normalized to untreated controls and presented as fold change of the controls.

HCT116 cells [3] = assay: MTT assay with or without antioxidants NAC or GSH; assay type: cell-based, human; settings: HCT116, MTT after 24 hours
Description: (A) HCT116 cells were treated with 40 μM 3-BP or NEO218 in the presence or absence of 1 mM NAC, 1 mM GSH, or 50 mM methyl-pyruvate (or sodium pyruvate, which produced similar outcomes). Cell viability was determined 24 hours later by MTT assay. (B) HCT116 cells were treated with 30 or 100 μM 3-BP or NEO218. After 30 minutes, cell lysates were prepared and analyzed for GAPDH activity. (C) Lysates from non-drug-treated MDA-MB-231 cells were mixed with 3-BP or NEO218 in the presence or absence of NAC or GSH at the concentrations mentioned in A. After 1 hour of incubation, GAPDH activity was determined. GAPDH activity in the absence of drug treatment was set at 100% (corresponding to 0.06 units/min×10^6 cells).
Tumor cells were treated with either NAC or GSH, in combination with NEO218 or 3-BP. HCT116 cells were treated with increasing concentrations of NEO218 and 3-BP (individually), in the presence or absence of 5 mM NAC or 1 mM GSH. After 24 hours, cell viability was determined by MTT assay.

GAPDH = target: T1, GAPDH (Oryctolagus cuniculus, UniProt P46406); assay: Mass spectrometry of purified GAPDH protein incubated with drug (cysteine modification); assay type: binding, rabbit; settings: 60 μM drug, 15 minutes
T1 construct: Purified GAPDH protein (30 μg, 1 μg/μl) from rabbit muscle (ScienCell Research Laboratories); purchased ScienCell Research Laboratories; host or cells: rabbit muscle
Description: Direct interaction of NEO218 with different targets was analyzed by LC/MS analysis. (A) Purified rabbit GAPDH protein was incubated with 3-BP or NEO218 for 15 minutes, followed by LC/MS analysis. GAPDH protein contains 4 cysteines (Cys) at the indicated positions, and all four were identified as being modified with a pyruvate moiety in the case of 3-BP, and a pyruvate-perillyl alcohol moiety in the case of NEO218 (indicated by pyr). (B) Extracted ion chromatogram (XIC) of the reaction products of NEO218 and GSH restricted to mass over charge (m/z) values between 528 and 529. […] Location and relative size of the peak at 529.204 corresponds to the ^13C isotope peak of the reaction product. (C) Reaction of NAC with NEO218 yielded several products shown in the ion map (top panel). The co-eluting twin isotope at m/z 539 and 541 distributed equally (insert in top panel) and was selected for further analysis, as shown in the two chromatograms in the bottom panels.
Thirty microgram of purified GAPDH protein was incubated in vitro with 60 μM 3-BP for 15 minutes at 37° C. Mass spectrometrical analysis was then used to determine whether 3-BP could directly bind to the amino acid sequence of the enzyme. […]

[4] = test system: MDA-MB-231 breast cancer cells; assay: LDH release assay in MDA-MB-231 / breast cancer cell lines; assay type: cell-based, human
Description: as §1, §2, §3, §4, §5

T1 sequence (P46406 whole entry): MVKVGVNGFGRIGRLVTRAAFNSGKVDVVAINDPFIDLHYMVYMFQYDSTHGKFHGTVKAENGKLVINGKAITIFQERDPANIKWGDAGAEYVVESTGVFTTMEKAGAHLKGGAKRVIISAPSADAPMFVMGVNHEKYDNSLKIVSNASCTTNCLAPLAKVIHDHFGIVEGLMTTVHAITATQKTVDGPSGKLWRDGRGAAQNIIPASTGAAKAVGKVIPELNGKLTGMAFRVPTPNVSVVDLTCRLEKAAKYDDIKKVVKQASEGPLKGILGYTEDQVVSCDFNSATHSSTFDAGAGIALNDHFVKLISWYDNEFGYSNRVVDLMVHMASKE

Structure (SMILES): C=C(C)[C@@H]1CC=C(COC(=O)C(=O)CBr)CC1 [NEO218, 3-bromo-2-oxo-propionic acid 4-isopropenyl-cyclohex-1-enylmethyl ester]
- potency in MDA-MB-231 compared with HCT116 / with 3-BP alone (MDA-MB-231 cells; MTT, LDH and CFA assays): maintained the same high potency
- IC50 (HCT116 cells [1]): ~18 µM
- EC50 [2]: ~8 µM
- effect of antioxidants NAC or GSH on drug-induced cell death (HCT116 cells [3]): antioxidant treatment similarly protected cells; also recorded: drug-induced cell death was completely prevented
- cysteine residues of GAPDH modified (GAPDH): the same four residues revealed attachment of pyruvate-perillyl alcohol moieties
- earliest detection of cytotoxic effects (LDH release) after onset of drug treatment ([4]; MDA-MB-231, time course): 1 h
- time at which half-maximal extent of cell death is reached ([4]; MDA-MB-231, time course of LDH release): < 8 h

Structure (SMILES): O=C(O)C(=O)CBr [3-BP, 3-bromopyruvate]
- IC50 (MDA-MB-231 cells; Homo sapiens, MDA-MB-231, 24 hours, read-out: effective concentration (half-maximal), MTT assay): ~220 µM
- IC50 (HCT116 cells [1]): ~18 µM
- cytotoxicity at 40 µM (HCT116 cells [1]; HCT-116, read-out: reduction of apparent viability in MTT assay): 75%
- EC50 [2]: ~8 µM
- effect of antioxidants NAC or GSH on drug-induced cell death (HCT116 cells [3]): profound protection; also recorded: drug-induced cell death was completely prevented
- cysteine residues of GAPDH modified (GAPDH): Cysteines at amino acid positions 245 and 282 turned out to be pyruvylated; also recorded: all 4 cysteines were altered by the addition of pyruvate
- EC50 ([4]; Homo sapiens, MDA-MB-231, 16 hours, read-out: effective concentration (half-maximal), LDH assay): ~350 µM
